The values that follow come from patent publication US9498467B2, “Treatment of chronic neutrophilic leukemia (CNL) and atypical chronic myeloid leukemia (aCML) by inhibitors of JAK1” (Incyte Corporation, priority 2014, dated 2016).

Broadly, the IC50 is the concentration that gives 50% inhibition.

Molecules are shown by their SMILES.

The target in assay [1] is T1, human JAK2 (a.a. 828-1132) (Homo sapiens, UniProt O60674).
T1 construct: JAK2 (a.a. 828-1132); made in house; host or cells: insect cells (baculovirus)
T1 sequence (O60674 828-1132): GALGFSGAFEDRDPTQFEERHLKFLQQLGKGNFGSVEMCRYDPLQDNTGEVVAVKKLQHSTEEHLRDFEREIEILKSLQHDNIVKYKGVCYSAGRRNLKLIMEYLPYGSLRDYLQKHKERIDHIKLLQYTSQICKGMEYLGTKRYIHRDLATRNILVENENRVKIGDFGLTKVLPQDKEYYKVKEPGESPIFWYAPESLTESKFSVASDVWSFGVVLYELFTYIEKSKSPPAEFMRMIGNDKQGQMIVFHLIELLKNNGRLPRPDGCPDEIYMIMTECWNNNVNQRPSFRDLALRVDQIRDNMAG
Kind of assay: In vitro JAK kinase assay (HTRF), JAK2. Type of assay: biochemical. To be noted: ratio of IC50s at 1 mM ATP.

The target of assay [2] is T2, human JAK1 (a.a. 837-1142) (Homo sapiens, UniProt P23458).
T2 construct: human JAK1 (a.a. 837-1142); made in house; host or cells: insect cells (baculovirus)
T2 sequence (P23458 849-1154): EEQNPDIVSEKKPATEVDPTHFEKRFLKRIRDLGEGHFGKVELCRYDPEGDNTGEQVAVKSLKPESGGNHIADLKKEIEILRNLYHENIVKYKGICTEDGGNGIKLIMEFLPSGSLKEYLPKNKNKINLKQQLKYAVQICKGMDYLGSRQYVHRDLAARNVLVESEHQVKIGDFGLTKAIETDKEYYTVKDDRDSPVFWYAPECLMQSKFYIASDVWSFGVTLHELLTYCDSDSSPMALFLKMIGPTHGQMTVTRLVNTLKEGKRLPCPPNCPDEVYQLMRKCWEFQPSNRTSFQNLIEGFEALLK
Kind of assay: In vitro JAK kinase assay (HTRF), JAK1. Type of assay: biochemical. To be noted: 1 mM ATP. For orientation: TR-FRET usually uses a lanthanide donor and a delayed reading to cut background.

For assay [3], the system named is GCSF induced pSTAT3 in human neutrophils. Kind of assay: JAK human neutrophil assay (pSTAT3 ELISA). To be noted: 0.25 h, read-out: IC50 (inhibition of pSTAT3). A general note: In an ELISA, binding on a coated surface is turned into a signal by an enzyme label.
The test system of assay [4] is CNL carrying a JAK-activating CSF3R mutation. To be noted: one patient with CNL carrying a JAK-activating CSF3R mutation; cited from earlier work.

Regarding `C[C@@H](O)c1nc2cnc3ccsc3c2n1[C@H]1CC[C@H](CC#N)OC1` [Compound 1, ((2R,5S)-5-{2-[(1R)-1-hydroxyethyl]-1H-imidazo[4,5-d]thieno[3,2-b]pyridin-1-yl}tetrahydro-2H-pyran-2-yl)acetonitrile], the JAK2/JAK1 in assay [1] is on record as above 10. Also, the IC50 in assay [2] and in assay [3] was below 100 nM throughout.
`N#CCC(C1CCCC1)n1cc(-c2ncnc3[nH]ccc23)cn1` (stereo in doubt) [ruxolitinib, (3R)-3-cyclopentyl-3-[4-(7H-pyrrolo[2,3-d]pyrimidin-4-yl)-1H-pyrazol-1-yl]propanenitrile, reference compound]: in assay [4], the clinical improvement entry was “Marked clinical improvement”. Besides, the half-inhibitory concentration (IC50) in assay [3] was below 100 nM.
For `N#CCC1(n2cc(-c3ncnc4[nH]ccc34)cn2)CN(C2CCN(C(=O)c3ccnc(C(F)(F)F)c3F)CC2)C1` [Compound 7, {1-{1-[3-Fluoro-2-(trifluoromethyl)iso-nicotinoyl]piperidin-4-yl}-3-[4-(7H-pyrrolo[2,3-d]pyrimidin-4-yl)-1H-pyrazol-1-yl]azetidin-3-yl}acetonitrile], the JAK2/JAK1 in assay [1] is above 10. Moreover, the IC50 was below 10 nM in assay [2] and below 100 nM in assay [3].
